Measurements: ChEMBL document CHEMBL5120902, “Phytohabitols A-C, δ-Lactone-Terminated Polyketides from an Actinomycete of the Genus Phytohabitans” (J Nat Prod, 2022)
In brackets after ≈: the same amount, converted by molar mass.

Columns and labels:
Trypanosoma cruzi = assay: Antitrypanosomal activity against Trypanosoma cruzi epimastigotes assessed as parasite growth inhibition measured after 24 hrs by CellTiter-glo luminescence assay; type: functional, organism-based
Bacillus subtilis = assay: Antibacterial activity against Bacillus subtilis assessed as inhibition of bacterial growth incubated for 48 hrs by liquid microculture method; type: functional
Kocuria rhizophila = assay: Antibacterial activity against Kocuria rhizophila assessed as inhibition of bacterial growth incubated for 48 hrs by liquid microculture method; type: functional
[1] = Antimigratory activity against human EC17 cells assessed as inhibition of cell migration incubated for 12 hrs by microscopic analysis; type: functional, cell-based; conditions: EC17, 12 h
[2] = Cytotoxicity against human EC17 cells at 0.18 to 18 uM incubated for 12 hrs; type: toxicity, cell-based; conditions: ec17, 12 h, dose 0.18-18 µM
[3] = Cytotoxicity against rat 3Y1 cells assessed as cell growth inhibition incubated for 84 hrs by MTT assay; type: toxicity, cell-based
[4] = Selectivity ratio of GI50 for cytotoxicity against rat 3Y1 cells to IC50 for antitrypanosomal activity against Trypanosoma cruzi epimastigotes; type: toxicity, cell-based

Row | IC50 (Trypanosoma cruzi) | MIC (Bacillus subtilis) | MIC (Kocuria rhizophila) | IC50 [1] | Structure (SMILES) | Activity [2] | GI50 at 84 h [3] | selectivity ratio [4]
1 | 12 µM | 100 µg/mL (≈ 179 µM) | 100 µg/mL (≈ 179 µM) | 15 µM | C/C=C(\C)[C@@H](O)[C@H](C)[C@H](O)C/C=C(C)/C=C(\C)C/C(C)=C/C/C=C(\C)[C@@H](O)[C@@H](C)[C@H]1CC[C@H](CCCC)C(=O)O1 | Non-Toxic | 32 µM | 2.8
2 | 6.4 µM | 100 µg/mL (≈ 184 µM) | 100 µg/mL (≈ 184 µM) | 11 µM | C/C=C(\C)[C@@H](O)[C@H](C)[C@H](O)C/C=C(C)/C=C(\C)C/C(C)=C/C/C=C(\C)[C@@H](O)[C@@H](C)[C@H]1CC[C@H](CCC)C(=O)O1 | Non-Toxic | 31 µM | 4.9
3 | 18 µM | 100 µg/mL (≈ 188 µM) | 100 µg/mL (≈ 188 µM) | 8.3 µM | C/C=C(\C)[C@@H](O)[C@H](C)[C@H](O)C/C=C(C)/C=C(\C)C/C(C)=C/C/C=C(\C)[C@@H](O)[C@@H](C)[C@H]1CC[C@H](CC)C(=O)O1 | Non-Toxic | 3.8 µM | 0.22

Row | Structure (SMILES) | IC50 (Trypanosoma cruzi) | MIC (Bacillus subtilis) | MIC (Kocuria rhizophila) | IC50 [1] | Activity [2] | GI50 at 84 h [3] | selectivity ratio [4]
4 | O=C(Cn1ccnc1[N+](=O)[O-])NCc1ccccc1 [BENZNIDAZOLE] | 16 µM |  |  |  |  |  | 
